Experiments:
[1] = system: Du145 (prostate carcinoma); assay: MTT in vitro growth inhibition assay, Du145; assay type: cell-based; conditions: Homo sapiens; for inhibition at 25 µM: DU-145, 25 µM of drug, 72 h, read-out: Percentage of Cell Growth Inhibition Du145; for GI50: DU-145, 72 h, 72 h drug exposure
Description: (§1) With the desired bolinaquinone analogues 12–43 in hand, we examined their cytotoxicity against a panel of 11 tumour cell lines: HT29 (colon carcinoma), U87 and SJ-G2 (glioblastoma), MCF-7 (breast carcinoma), A2780 (ovarian carcinoma), H460 (lung carcinoma), A431 (skin carcinoma), Du145 (prostate carcinoma), BE2-C (neuroblastoma), MIA (pancreatic carcinoma), SMA (spontaneous murine astrocytoma) and a normal breast cell line (MCF10A). The inclusion of the MCF-10A cell line allowed a determination of a crude measure of relative toxicity while noting that the ultimate arbiter of toxicity requires in vivo evaluation. All analogues were initially screened at a 25 µM drug concentration.
(§2) Stock solutions were prepared as follows and stored at −20°C: drugs were stored as 40 mM solutions in DMSO. All cell lines were cultured in a humidified atmosphere 5% CO2 at 37°C. The cancer cell lines were maintained in Dulbecco's modified Eagle's medium (DMEM) (Trace Biosciences, Australia) supplemented with 10% fetal bovine serum, 10 mM sodium bicarbonate, penicillin (100 IU ml^−1), streptomycin (100 µg ml^−1) and glutamine (4 mM). The non-cancer MCF10A cell line was cultured in DMEM:F12 (1 : 1) cell culture media, 5% heat-inactivated horse serum, supplemented with penicillin (50 IU ml^−1), streptomycin (50 µg ml^−1), 20 mM Hepes, L-glutamine (2 mM), epidermal growth factor (20 ng ml^−1), hydrocortisone (500 ng ml^−1), cholera toxin (100 ng ml^−1) and insulin (10 ug ml^−1).
(§3) Cells in logarithmic growth were transferred to 96-well plates. Cytotoxicity was determined by plating cells in duplicate in 100 µl medium at a density of 2500–4000 cells per well. On day 0 (24 h after plating), when the cells were in logarithmic growth, 100 μl of medium with or without the test agent was added to each well. After 72 h, drug exposure growth inhibitory effects were evaluated using the MTT (3-[4,5-dimethylthiazol-2-yl]-2,5-diphenyl-tetrazolium bromide) assay and the absorbance read at 540 nm. Percentage growth inhibition was determined at a fixed drug concentration of 25 µM. A value of 100% is indicative of complete cell growth inhibition. Those analogues showing appreciable percentage growth inhibition underwent further dose–response analysis allowing for the calculation of a GI50 value. This value is the drug concentration at which cell growth is 50% inhibited based on the difference between the optical density values on day 0 and those at the end of drug exposure.

[2] = system: A2780 (ovarian carcinoma); assay: MTT in vitro growth inhibition assay, A2780; assay type: cell-based; conditions: Homo sapiens; for inhibition at 25 µM: 25 µM of drug, 72 h, read-out: Percentage of Cell Growth Inhibition A2780; for GI50: 72 h drug exposure
Description: as §1, §2, §3

[3] = system: MIA (pancreatic carcinoma); assay: MTT in vitro growth inhibition assay, MIA; assay type: cell-based; conditions: for inhibition at 25 µM: 25 µM of drug, 72 h, read-out: Percentage of Cell Growth Inhibition MIA; for GI50: 72 h drug exposure
Description: as §1, §2, §3

U87 (glioblastoma) = assay: MTT in vitro growth inhibition assay, U87; assay type: cell-based; conditions: for inhibition at 25 µM: 25 µM of drug, 72 h, read-out: Percentage of Cell Growth Inhibition U87; for GI50: 72 h drug exposure
Description: as §1, §2, §3

SJ-G2 (glioblastoma) = assay: MTT in vitro growth inhibition assay, SJ-G2; assay type: cell-based; conditions: for inhibition at 25 µM: 25 µM of drug, 72 h, read-out: Percentage of Cell Growth Inhibition SJ-G2; for GI50: 72 h drug exposure
Description: as §1, §2, §3

[4] = system: SMA (spontaneous murine astrocytoma); assay: MTT in vitro growth inhibition assay, SMA; assay type: cell-based; conditions: Mus musculus; for inhibition at 25 µM: 25 µM of drug, 72 h, read-out: Percentage of Cell Growth Inhibition SMA; for GI50: 72 h drug exposure
Description: as §1, §2, §3

[5] = system: MCF10A (normal breast cell line); assay: MTT in vitro growth inhibition assay, MCF10A; assay type: cell-based; conditions: Homo sapiens, MCF-10A; for inhibition at 25 µM: 25 µM of drug, 72 h, read-out: Percentage of Cell Growth Inhibition MCF10A; for GI50: normal breast cell line, 72 h drug exposure
Description: as §1, §2, §3

MCF-7 (breast carcinoma) = assay: MTT in vitro growth inhibition assay, MCF-7; assay type: cell-based; conditions: Homo sapiens; for inhibition at 25 µM: MCF7, 25 µM of drug, 72 h, read-out: Percentage of Cell Growth Inhibition MCF-7; for GI50: MCF7, 72 h drug exposure
Description: as §1, §2, §3

BE2-C (neuroblastoma) = assay: MTT in vitro growth inhibition assay, BE2-C; assay type: cell-based; conditions: Homo sapiens, BE(2)-C, 72 h; for inhibition at 25 µM: 25 µM of drug, read-out: Percentage of Cell Growth Inhibition BE2-C; for GI50: 72 h drug exposure
Description: as §1, §2, §3

H460 (lung carcinoma) = assay: MTT in vitro growth inhibition assay, H460; assay type: cell-based; conditions: Homo sapiens; for inhibition at 25 µM: NCI-H460, 25 µM of drug, 72 h, read-out: Percentage of Cell Growth Inhibition H460; for GI50: NCI-H460, 72 h drug exposure
Description: as §1, §2, §3

A431 (skin carcinoma) = assay: MTT in vitro growth inhibition assay, A431; assay type: cell-based; conditions: Homo sapiens; for inhibition at 25 µM: A-431, 25 µM of drug, 72 h, read-out: Percentage of Cell Growth Inhibition A431; for GI50: A-431, 72 h, 72 h drug exposure
Description: as §1, §2, §3

HT29 (colon carcinoma) = assay: MTT in vitro growth inhibition assay, HT29; assay type: cell-based; conditions: Homo sapiens; for inhibition at 25 µM: HT-29, 25 µM of drug, 72 h, read-out: Percentage of Cell Growth Inhibition HT29; for GI50: HT-29, 72 h drug exposure
Description: as §1, §2, §3

Row | Structure (SMILES) | inhibition at 25 µM [1] | inhibition at 25 µM [2] | inhibition at 25 µM [3] | inhibition at 25 µM (U87 (glioblastoma)) | inhibition at 25 µM (SJ-G2 (glioblastoma)) | inhibition at 25 µM [4] | inhibition at 25 µM [5] | inhibition at 25 µM (MCF-7 (breast carcinoma)) | melting point | inhibition at 25 µM (BE2-C (neuroblastoma)) | inhibition at 25 µM (H460 (lung carcinoma)) | inhibition at 25 µM (A431 (skin carcinoma)) | inhibition at 25 µM (HT29 (colon carcinoma)) | GI50 [1] | GI50 [2] | GI50 [3] | GI50 (U87 (glioblastoma)) | GI50 (SJ-G2 (glioblastoma)) | GI50 [4] | GI50 [5] | other results
1 | COC1=C(c2ccccc2)C(=O)C(OC)=C(c2cccc3ccccc23)C1=O [compound 32, 2,5-Dimethoxy-3-(naphthalen-1-yl)-6-phenylcyclohexa-2,5-diene-1,4-dione] | 18 ± 4% | 60 ± 17% | 13 ± 1% | 19 ± 2% | 19 ± 3% | 58 ± 13% | 58 ± 15% | 22 ± 2% | 168 to 170 °C | 27 ± 15% | 20 ± 8% | 17 ± 2% | 15 ± 4% | – | – | – | – | – | – | – | –
2 | COC1=C(c2ccc3ccccc3c2)C(=O)C(OC)=C(c2cccc3ccccc23)C1=O [compound 33, 2,5-Dimethoxy-3-(naphthalene-1-yl)-6-(naphthalene-3-yl)cyclohexa-2,5-diene-2,5-diene-1,4-dione] | 40 ± 1% | 98 ± 0.5% | 72 ± 2% | 43 ± 11% | 92 ± 5% | 81 ± 10% | 86 ± 3% | > 100% | 163 to 165 °C | 81 ± 1% | 45 ± 2% | 57 ± 3% | 53 ± 2% | 31 µM | 6.9 ± 1.2 µM | 15 ± 0.9 µM | 26 ± 2.1 µM | 14 ± 1.9 µM | 11 ± 0.33 µM | 13 ± 2.2 µM | GI50 (MCF-7 (breast carcinoma)): 5.6 ± 0.7 µM; GI50 (BE2-C (neuroblastoma)): 12 ± 0.9 µM; GI50 (H460 (lung carcinoma)): 28 ± 2.7 µM; GI50 (A431 (skin carcinoma)): 23 ± 3.4 µM; GI50 (HT29 (colon carcinoma)): 23 ± 1.2 µM
3 | COC1=C(c2ccc3ccccc3c2)C(=O)C(OC)=C(c2ccc(OC)cc2OC)C1=O [compound 34, 2,5-Dimethoxy-3-(2,4-dimethoxyphenyl)-6-(naphthalene-3-yl)cyclohexa-2,5-diene-1,4-dione] | 41 ± 3% | 100 ± 1% | 70 ± 1% | 61 ± 4% | 83 ± 2% | 98 ± 1% | 99 ± 2% | > 100% | 159 to 161 °C | > 100% | 49 ± 9% | 85 ± 2% | 82 ± 2% | 27 ± 2.5 µM | 6.1 ± 0.03 µM | 18 ± 0.33 µM | 22 ± 2 µM | 16 µM | 9.7 ± 0.6 µM | 12 ± 2.4 µM | GI50 (MCF-7 (breast carcinoma)): 6.2 ± 0.31 µM; GI50 (BE2-C (neuroblastoma)): 9.6 ± 0.5 µM; GI50 (H460 (lung carcinoma)): 35 ± 6.9 µM; GI50 (A431 (skin carcinoma)): 15 ± 1 µM; GI50 (HT29 (colon carcinoma)): 10.2 ± 0.3 µM
4 | CCCCc1ccc(C2=C(OC)C(=O)C(c3ccc4ccccc4c3)=C(OC)C2=O)cc1 [compound 35, 2-(4-Butylphenyl)-3,6-dimethoxy-5-(naphthalene-3-yl)cyclohexa-2,5-diene-1,4-dione] | 56 ± 2% | 66 ± 1% | 61 ± 2% | 38 ± 2% | 67 ± 4% | 79 ± 5% | 47 ± 5% | 87 ± 1% | 134 to 136 °C | 61 ± 2% | 61 ± 3% | 49 ± 3% | 59 ± 3% | 19 ± 1 µM | 14 ± 2 µM | 18 ± 1.2 µM | 42 ± 2.8 µM | 16 ± 2.2 µM | 8.2 ± 0.8 µM | 26 ± 4.8 µM | GI50 (MCF-7 (breast carcinoma)): 10 ± 0.6 µM; GI50 (BE2-C (neuroblastoma)): 23 ± 3.2 µM; GI50 (H460 (lung carcinoma)): 19 ± 0.6 µM; GI50 (A431 (skin carcinoma)): 26 ± 4.8 µM; GI50 (HT29 (colon carcinoma)): 21 ± 2.6 µM
5 | COC1=C(c2ccc3ccccc3c2)C(=O)C(OC)=C(c2ccccc2-c2ccccc2)C1=O [compound 36, 2,5-Dimethoxy-3-(biaryl-2-yl)-6-(naphthalene-3-yl)cyclohexa-2,5-diene-1,4-dione] | 51 ± 3% | 87 ± 2% | 78 ± 2% | 57 ± 2% | 78 ± 5% | 84 ± 7% | 77 ± 4% | > 100% | 113 to 115 °C | > 100% | 65 ± 3% | 78 ± 2% | > 100% | 21 ± 0.2 µM | 9 ± 0.6 µM | 12 ± 0.7 µM | 20 ± 0.9 µM | 13 ± 1.5 µM | 10 ± 0.3 µM | 15 ± 2.2 µM | GI50 (MCF-7 (breast carcinoma)): 5.1 ± 0.5 µM; GI50 (BE2-C (neuroblastoma)): 8.7 ± 0.7 µM; GI50 (H460 (lung carcinoma)): 18 ± 2.3 µM; GI50 (A431 (skin carcinoma)): 15 ± 1.5 µM; GI50 (HT29 (colon carcinoma)): 11 ± 0.9 µM
6 | COC1=C(c2cccc(-c3ccccc3)c2)C(=O)C(OC)=C(c2ccc3ccccc3c2)C1=O [compound 37, 2,5-Dimethoxy-3-(biaryl-3-yl)-6-(naphthalene-3-yl)cyclohexa-2,5-diene-1,4-dione] | > 100% | 76 ± 3% | 91 ± 2% | 74 ± 3% | > 100% | 85 ± 3% | > 100% | 88 ± 4% | 119 to 121 °C | > 100% | 95 ± 1% | > 100% | > 100% | 9.8 ± 0.7 µM | 11 ± 0.9 µM | 8.3 ± 1 µM | 14 ± 1 µM | 9.3 ± 1.2 µM | 13 ± 1 µM | 11 ± 1.3 µM | GI50 (MCF-7 (breast carcinoma)): 10 ± 2.6 µM; GI50 (BE2-C (neuroblastoma)): 6.7 ± 0.3 µM; GI50 (H460 (lung carcinoma)): 11 ± 0.3 µM; GI50 (A431 (skin carcinoma)): 6 ± 0.9 µM; GI50 (HT29 (colon carcinoma)): 5.4 ± 0.4 µM
7 | CCCNC1=CC(=O)C(NCCC)=C(c2ccc(C)cc2)C1=O [compound 38, 2,5-Bis(propylamino)3-p-tolylcyclohexa-2,5-diene-1,4-dione] | 56 ± 2% | 63 ± 4% | 67 ± 3% | 67 ± 5% | 50 ± 2% | 73 ± 1% | 69 ± 3% | 57 ± 3% | 166 to 168 °C | 28 ± 12% | 51 ± 2% | 81 ± 0.3% | 59 ± 4% | – | – | – | – | – | – | – | –
8 | CCCNC1=CC(=O)C(NCCC)=C(c2cccc3ccccc23)C1=O [compound 39, 3-(Naphthalene-1-yl)-2,5-bis-(propylamino)cyclohexa-2,5-diene-1,4-dione] | 75 ± 1% | 78 ± 2% | 69 ± 2% | 75 ± 1% | 59 ± 1% | 54 ± 11% | 78 ± 1% | 69 ± 1% | 134 to 137 °C | 73 ± 3% | 59 ± 3% | 76 ± 3% | 76 ± 2% | – | – | – | – | – | – | – | –

From publication PMC5936891, “A focused library synthesis and cytotoxicity of quinones derived from the natural product bolinaquinone” (Royal Society Open Science, 2018)
